How the values were obtained:
B. cereus = experiment: Disc diffusion zone of inhibition (Example 2); type: cell-based, Bacillus cereus; conditions: 10 μg/disc
Protocol: (§1) The growth medium was prepared by addition of Müller-Hinton agar (38 g) to 1 L distilled water under vigorous stirring and boiled for 10 min until complete dissolution. After cooling to 25° C., the pH value of the medium was 7.3±0.1. The medium was sterilized in an autoclave at 121° C. for 15 min at 20 psi, cooled to 45-50° C. and dispended into sterile Petri dishes on a leveled, horizontal surface to give uniform depth. Stock solutions of the microorganisms were incubated at 37° C. for 24 h and the turbidity of these microbial colony were adjusted visually with sterile saline (0.85% w/v NaCl) to 0.5 McFarland standards (bioMerieux, SA (France) they are made from barium sulfate (BaSO4). Within 15 min after adjusting the turbidity of the suspensions, the Petri dishes were inoculated using sterile cotton buds. The prepared antibiotic assay discs were placed on the surface of the seeded Müller-Hinton agar using flame sterilized forceps.
(§2) Stock solutions of compounds of Formula I, Ia, Ib and Formula II, IIa, pharmaceutically acceptable salts thereof, and metal complexes thereof were made in DMSO and were micropipetted onto the discs for 25 to 200 μg/disc. The discs were dried at ambient temperature for 30-50 min before placement onto the seeded Petri dishes which were then incubated at 37° C. for 24 h. Averaged inhibition zone diameters measurements (mm) have an accuracy of ±0.5 mm; adjacent overlapping ZOI were determined using radii measurements. Antibiotic disc like (sulfamethoxazole 23.75 μg trimethoprim 1.25 μg)/disc, Gentamicin 10 μg/disc and DMSO were used as positive and negative standards (control).
(§3) Antimicrobial test was carried out to evaluate the efficacy of compounds of Formula I, Ia, Ib and Formula II, IIa, pharmaceutically acceptable salts thereof, and metal complexes thereof, as well as control tests with control compounds, against six major pathogenic bacteria namely Bacillus cereus, Pseudomonas aeruginosa, Klebsiella pneumonia, Proteus vulgaris, Staphylococcus aureus and Escherichia coli.

E. coli = experiment: Disc diffusion zone of inhibition (Example 2); type: cell-based, Escherichia coli; conditions: 10 μg/disc
Protocol: as §1, §2, §3

P. aeruginosa = experiment: Disc diffusion zone of inhibition (Example 2); type: cell-based, Pseudomonas aeruginosa; conditions: 10 μg/disc
Protocol: as §1, §2, §3

P. vulgaris = experiment: Disc diffusion zone of inhibition (Example 2); type: cell-based, Proteus vulgaris; conditions: 10 μg/disc
Protocol: as §1, §2, §3

K. pnemonia = experiment: Disc diffusion zone of inhibition (Example 2); type: cell-based, Klebsiella pneumonia; conditions: 10 μg/disc
Protocol: as §1, §2, §3

S. aureus = experiment: Disc diffusion zone of inhibition (Example 2); type: cell-based, Staphylococcus aureus; conditions: S. aureus; 10 μg/disc
Protocol: as §1, §2, §3

Bacillus cereus = experiment: In vitro disc diffusion assay, ZOI (Example 3); type: cell-based; conditions: B. cereus; control; 10 μg/disc
Protocol: (§4) Sterile assay discs (6 mm diameter) were obtained from VWR Whatman and antibiotic assay discs (6 mm diameter) containing getamicin (10 μg/disc) and the combination drug sulfamethoxazole 23.75 μg/disc and trimethoprim 1.25 μg/disc were obtained from Becton, Dickinson and Company (USA). Dimethyl sulfoxide (DMSO) for microbial experiments was BioReagent™ grade and was purchased from Sigma-Aldrich. The nutrient broth and Müller-Hinton agar was purchased from Becton, Dickinson and Company (USA). Bacillus cereus, Pseudomonas aeruginosa (#27853), Klebsiella pneumonia (#13883), Proteus vulgaris (#13315), Staphylococcus aureus (#25923) and Escherichia coli (#25922) strains were obtained from the American Type Culture Collection (ATCC). All materials in contact with antimicrobial matter was treated for 40 min at 121° C. and 20 psi in a biohazard autoclave bag prior to waste disposing or washing. McFarland turbity standards containing barium sulfate were obtained from bioMérieux.
as §1, with “the” for “these”, “colonies” for “colony”, “standards.” for “standards (bioMerieux, SA (France) they are made from barium sulfate (BaSO4).”
(§5) Stock solutions of compounds and the Cu complexed compounds were made in DMSO and were micropipetted onto the discs for 25 to 200 μg compound/disc. The discs were dried at ambient temperature for 30-50 min before placement onto the seeded Petri dishes which were then incubated at 37° C. for 24 h. Averaged inhibition zone measurements (mm) have an accuracy of ±0.5 mm; adjacent overlapping ZOI were determined using radii measurements.

[1] = tested on: Escherichia coli (#25922); experiment: In vitro disc diffusion assay, ZOI (Example 3); type: cell-based; conditions: E. coli; control; 10 μg/disc
Protocol: as §4
as §1, with “the” for “these”, “colonies” for “colony”, “standards.” for “standards (bioMerieux, SA (France) they are made from barium sulfate (BaSO4).”
as §5

[2] = tested on: Klebsiella pneumonia (#13883); experiment: In vitro disc diffusion assay, ZOI (Example 3); type: cell-based; conditions: K. pnemonia; control; 10 μg/disc
Protocol: as §4
as §1, with “the” for “these”, “colonies” for “colony”, “standards.” for “standards (bioMerieux, SA (France) they are made from barium sulfate (BaSO4).”
as §5

[3] = tested on: Proteus vulgaris (#13315); experiment: In vitro disc diffusion assay, ZOI (Example 3); type: cell-based; conditions: P. vulgaris; control; 10 μg/disc
Protocol: as §4
as §1, with “the” for “these”, “colonies” for “colony”, “standards.” for “standards (bioMerieux, SA (France) they are made from barium sulfate (BaSO4).”
as §5

[4] = tested on: Pseudomonas aeruginosa (#27853); experiment: In vitro disc diffusion assay, ZOI (Example 3); type: cell-based; conditions: P. aeruginosa; control; 10 μg/disc
Protocol: as §4
as §1, with “the” for “these”, “colonies” for “colony”, “standards.” for “standards (bioMerieux, SA (France) they are made from barium sulfate (BaSO4).”
as §5

[5] = tested on: Staphylococcus aureus (#25923); experiment: In vitro disc diffusion assay, ZOI (Example 3); type: cell-based; conditions: S. aureus; control; 10 μg/disc
Protocol: as §4
as §1, with “the” for “these”, “colonies” for “colony”, “standards.” for “standards (bioMerieux, SA (France) they are made from barium sulfate (BaSO4).”
as §5

## Gentamicin
B. cereus
  Zone of Inhibition: 25 mm
E. coli
  Zone of Inhibition: 24 mm
P. aeruginosa
  Zone of Inhibition: 20 mm
P. vulgaris
  Zone of Inhibition: 24 mm
K. pnemonia
  Zone of Inhibition: 25 mm
S. aureus
  Zone of Inhibition: 25 mm
Bacillus cereus
  ZOI: 9.5 mm
[1]
  ZOI: 9 mm
[2]
  ZOI: 9.5 mm
[3]
  ZOI: 9 mm
[4]
  ZOI: 7 mm
[5]
  ZOI: 9.5 mm

Source: patent publication US20140348880A1, “Ortho-Aminothiophenol Compounds and Uses Thereof” (Cape Breton University, priority 2013, published 2014)
